Reference: patent publication US11801232B2, “Targeting of ARID1A-deficient cancers by inhibiting de novo pyrimidine synthesis pathway” (YALE UNIVERSITY, priority 2019, dated 2023)

What was measured:
[1] = test system: ES2 ARID1A-knockdown cells (shARID1A); test: Cell growth after 72 h drug treatment, ARID1A-knockdown versus control cells; assay type: cell-based, human; details: 72 h treatment; compared to untransfected or shCon ES2 cells
Method: Short Hairpin RNA (shRNA)-Mediated Knockdown and Expression of ARID1A in ovarian and endometrial carcinoma cells. shRNA lentiviral supernatants were produced using standard protocols, as previously described^8. Vectors were transfected into HEK293FT cells using X-tremeGENE 9 DNA Transfection Reagent (from Roche). Retroviral supernatants isolated at 48 h were diluted 1:1 in culture medium and used to infect ARID1A-wildtype ES2 and KLE cell lines. Stably transfected subclones were expanded using puromycin (from Dot Scientific) drug selection. For expression of ARID1A in the ARID1A-mutant HEC-1-A cell line, pCIN4-HA-ARID1A was transfected using X-tremeGENE 9 DNA Transfection Reagent (from Roche), followed by selection with G418 (from Gibco). For expression of ARID1A in the ARID1A-mutant SKOV3 and OVISE cell lines, V5/His-tagged pLenti-puro-LacZ and pLenti-puro-ARID1A were transfected using lentivirus. […]
(§1) Cytotoxicity assay. […] Cell number was determined using a sulforhodamine B (SRB) assay, as previously described^23. […] After washing, protein-bound dye was solubilized with 10 mM unbuffered Tris-base solution (pH 10.5) and detected at 510 nm using a microplate reader. Percentage of cell-growth was calculated using the following formula: % cell growth=[(Absorbance sample)/(Absorbance untreated)]×100 […]

γ-H2AX = test: Immunoblot and immunofluorescence of γ-H2AX in ES2 cells; assay type: cell-based, human; details: ARID1A-knockdown ES2 cells; teriflunomide 15 μM, AZD6738 1.5 μM, VX-970 0.075 μM; 24-72 h
Method: Immunoblot Analysis and Co-Immunoprecipitation Assay. For immunoblotting experiments, cells were lysed in BC200 lysis buffer [20 mM Tris-HCl (pH 7.5), 200 mM NaCl, 1 mM EDTA, 0.2% Nonidet P-40 (NP-40), freshly added complete protease inhibitor cocktail (from Roche), and PhosSTOP phosphatase inhibitor (from Roche)] or in boiling SDS lysis buffer [1% SDS and 10 mM Tris-CI (pH 7.5)], as previously described^21. Protein concentrations were quantified using a modified Lowry assay, and equal protein amounts were loaded onto a 10% SDS-PAGE gel and separated by gel electrophoresis, followed by transfer to a nitrocellulose membrane. The nitrocellulose membrane was stained with Ponceau S to confirm equal protein loading and then blocked in 2% BSA in Tris-buffered saline with 0.1% Tween-20 (tris buffered saline with tween, or TBST). Primary antibody incubation was done for 2 h at room temperature or, for phospho-specific antibodies, overnight at 4° C. An HRP-conjugated secondary antibody was used, followed by detection using enhanced chemiluminescence substrate (from Pierce). Autoradiograph images were scanned and saved as unmodified TIFF images, and densitometry analysis was done with ImageJ (from NIH) software.
Immunofluorescence. […] Images of cells were acquired using a BZ-X710 fluorescence microscope (from KEYENCE) and analyzed using ImageJ (from NIH).

ES2 cells = test: Cytotoxicity (SRB) assay with CalcuSyn combination analysis; assay type: cell-based; details: Homo sapiens, ES-2, Table 2; ES2 parental; VX970 alone; read-out: Dm
Method: Cytotoxicity assay. Cells were seeded in 96-well plates, with 2000 cells in 100 μL/well, and cultured for 24 h. The cells were treated with serial dilutions of drugs or without drug for an additional 72 h. Cell number was determined using a sulforhodamine B (SRB) assay, as previously described^23. Briefly, cells were fixed with 20% trichloroacetic acid (TCA), air-dried, and stained with 0.4% SRB dissolved in 1% acetic acid. After washing, protein-bound dye was solubilized with 10 mM unbuffered Tris-base solution (pH 10.5) and detected at 510 nm using a microplate reader. Percentage of cell-growth was calculated using the following formula: % cell growth=[(Absorbance sample)/(Absorbance untreated)]×100 […] Datasets from at least three independent experiments were combined, and each table cell contains the mean value±SD. SCR, ES2-shScrambled. N/A, not applicable. Statistical analysis was carried out by one-way ANOVA with Bonferroni's post-hoc test, and differences were considered significant at **P<0.01 and ***P<0.001 as compared to the ES2 parental group with the same drug treatment. […] CIwt value was calculated using the formula: […] Datasets from at least three independent experiments were combined, and each table cell contains the mean value±SD. Teri, teriflunomide. SCR, ES2-shScrambled. N/A, not applicable. Statistical analysis was carried out by one-way ANOVA with Bonferroni's post-hoc test, and differences were considered significant at ***P<0.001 as compared to the ES2 parental group with the same drug treatment.

[2] = test system: ARID1A-knockout HCT116 cells; test: Cell growth after 72 h drug treatment, ARID1A-knockout versus wild-type cells; assay type: cell-based, human; details: 72 h treatment; compared to ARID1A wild-type HCT116 control cells
Method: Cell Lines. Adherent cell lines were cultured in RPMI 1640 (from Gibco) supplemented with 10% fetal bovine serum (from Gibco) and 1% penicillin-streptomycin (from Gibco) at 37° C., 5% CO2. Low-passage-number cells were used, and all cell lines tested negative for mycoplasma using the MycoAlert Mycoplasma Detection Kit (from Lonza). The following ovarian and endometrial cancer cell lines were used: ES26, KLE5, SKOV3, OVISE (from JCRB Cell Bank), and HEC-1-A5 cells and their stably transfected subclones, as described below. Cell lines were authenticated using the GenePrint10 kit (form Promega) and matching to their original profiles (at ATCC). ARID1A protein expression status was confirmed by immunoblotting. HEK293FT cells were from Thermo Fisher Scientific. ARID1A-knockout HCT116 (homozygous truncating mutations, Q456*/Q456*) and ARID1A-wildtype HCT116 colorectal carcinoma cells were from Horizon Discovery.
as §1, with “assay. Cells were seeded in 96-well plates, with 2000 cells in 100 μL/well, and cultured for 24 h.” for “assay.”

ES2 shARID1A (a) cells = test: Cytotoxicity (SRB) assay with CalcuSyn combination analysis; assay type: cell-based; details: Homo sapiens, Table 2, VX970 alone, read-out: Dm
Method: (§2) Short Hairpin RNA (shRNA)-Mediated Knockdown and Expression of ARID1A in ovarian and endometrial carcinoma cells. shRNA lentiviral supernatants were produced using standard protocols, as previously described^8. Vectors were transfected into HEK293FT cells using X-tremeGENE 9 DNA Transfection Reagent (from Roche). Retroviral supernatants isolated at 48 h were diluted 1:1 in culture medium and used to infect ARID1A-wildtype ES2 and KLE cell lines. Stably transfected subclones were expanded using puromycin (from Dot Scientific) drug selection. For expression of ARID1A in the ARID1A-mutant HEC-1-A cell line, pCIN4-HA-ARID1A was transfected using X-tremeGENE 9 DNA Transfection Reagent (from Roche), followed by selection with G418 (from Gibco). For expression of ARID1A in the ARID1A-mutant SKOV3 and OVISE cell lines, V5/His-tagged pLenti-puro-LacZ and pLenti-puro-ARID1A were transfected using lentivirus. Lentivirus was produced using HEK293FT cells with the second-generation packaging system pSPAX2 (Addgene plasmid) and pMD2.G (Addgene plasmid). Stably transfected subclones were expanded using puromycin and blasticidin (Gibco) drug selection.
(§3) Cytotoxicity assay. Cells were seeded in 96-well plates, with 2000 cells in 100 μL/well, and cultured for 24 h. The cells were treated with serial dilutions of drugs or without drug for an additional 72 h. Cell number was determined using a sulforhodamine B (SRB) assay, as previously described^23. Briefly, cells were fixed with 20% trichloroacetic acid (TCA), air-dried, and stained with 0.4% SRB dissolved in 1% acetic acid. After washing, protein-bound dye was solubilized with 10 mM unbuffered Tris-base solution (pH 10.5) and detected at 510 nm using a microplate reader. Percentage of cell-growth was calculated using the following formula: % cell growth=[(Absorbance sample)/(Absorbance untreated)]×100
(§4) Using CalcuSyn software (Biosoft), dose-effect curves were generated, and drug concentrations corresponding to a 50% decrease in cell number (IC50) were determined.
(§5) Drug concentrations corresponding to a median effect (Dm) are shown for each treatment; teriflunomide concentration is shown for combination (Combo) treatment at a 10:1 fixed molar ratio of two drugs, teriflunomide and AZD6738. […] Datasets from at least three independent experiments were combined, and each table cell contains the mean value±SD. SCR, ES2-shScrambled. N/A, not applicable. Statistical analysis was carried out by one-way ANOVA with Bonferroni's post-hoc test, and differences were considered significant at **P<0.01 and ***P<0.001 as compared to the ES2 parental group with the same drug treatment.
(§6) Drug concentrations (in μM for teriflunomide, in nM for […]) corresponding to median effect (Dm) are shown for each treatment; teriflunomide concentration is shown for combination (Combo) treatment at a 200:1 fixed molar ratio of the two drugs, teriflunomide and VX-970. […] CIwt<0.8, =0.8 to 1.2, and >1.2 indicates synergism, an additive effect, and antagonism, respectively. CIwt value was calculated using the formula: CIwt=(ED50+2ED75+3ED90)/6. Datasets from at least three independent experiments were combined, and each table cell contains the mean value±SD. Teri, teriflunomide. SCR, ES2-shScrambled. N/A, not applicable. Statistical analysis was carried out by one-way ANOVA with Bonferroni's post-hoc test, and differences were considered significant at ***P<0.001 as compared to the ES2 parental group with the same drug treatment.

[3] = test system: ES2-shScrambled (SCR) cells; test: as above; assay type: cell-based; details: Homo sapiens, Table 2, VX970 alone, read-out: Dm
Method: as §2, §3, §4, §5, §6

ES2 shARID1A (b) cells = test: as above; assay type: cell-based; details: Homo sapiens, Table 2, VX970 alone, read-out: Dm
Method: as §2, §3, §4, §5, §6

SMILES | Drug sensitivity of ARID1A-knockdown ES2 cells [1] | γ-H2AX protein levels (γ-H2AX) | IC50 (ES2 cells) [nM] | Drug sensitivity of ARID1A-knockout HCT116 cells [2] | IC50 (ES2 shARID1A (a) cells) [nM] | IC50 [3] [nM] | IC50 (ES2 shARID1A (b) cells) [nM]
CCc1cncnc1N1CCN(Cc2nc3ccc(C(F)(F)F)cc3[nH]2)CC1 [PF-4708671] | significantly hypersensitive | – | – | – | – | – | –
CNCc1ccc(-c2cc(-c3nc(-c4ccc(S(=O)(=O)C(C)C)cc4)cnc3N)on2)cc1 [VX-970] | – | increased | 165 ± 3.84 | more sensitive | 54.3 ± 1.31 | 170 ± 9.24 | 63.3 ± 10.4
